In assay [1] the target is T1, RORγ-LBD (Homo sapiens (Human), UniProt P51449). Nature of the assay: RORγ-Ligand Binding Domain (LBD) TR-FRET Assay Protocol II. It is filed as biochemical. The note with it: purified RORγ-LBD, SRC1 peptide, overnight at 4° C. The procedure: Part II—Procedures for RORγ-Ligand Binding Domain TR-FRET Assay Protocol II
HIS-tagged RORγ-LBD protein was expressed in SF9 cells using a baculovirus expression system. The RORγ-LBD protein was purified by […]. Separately, SF9 cells not expressing recombinant protein were lysed in TBS buffer (25 mM Tris, pH 8.0, 150 mM NaCl) under sonication. The lysate was added to the purified RORγ-LBD in a volume equivalent of 0.75 μL lysate (from 30,000 SF9 cells) per 75 femtomol of RORγ-LBD protein. The resulting mixture was diluted in assay buffer (50 mM Tris pH 7.0, 50 mM KCl, 1 mM EDTA, 0.1 mM DTT, 0.01% BSA) to obtain RORγ-LBD protein at a final concentration of 3 nM.
Compounds to be tested were injected to the assay plate using Acoustic Droplet Ejection technology by Echo 550 liquid handler (Labcyte, Calif.).
A stock of biotinylated-LXXLL peptide from coactivator SRC1 (Biotin-[…]) was prepared in assay buffer and added to each well (100 nM final concentration). A solution of Europium tagged anti-HIS antibody (1.25 nM final concentration) and APC-conjugated streptavidin (8 nM final concentration) were also added to each well.
The final assay mixture was incubated overnight at 4° C., and the fluorescence signal was measured on an Envision plate reader: (Excitation filter=340 nm; APC emission=665 nm; Europium emission=615 nm; dichroic mirror=D400/D630; delay time=100 μs, integration time=200 μs). The EC50 value for test compounds was calculated from the quotient of the fluorescence signal at 665 nm divided by the fluorescence signal at 615 nm

Assay [2] addresses T1, RORγ-LBD. The assay is described as follows: RORγ-Ligand Binding Domain (LBD) TR-FRET Assay Protocol I. In kind it is biochemical. Conditions: RORγ-LBD lysate from SF9 cells, SRC1-2 peptide. The procedure:
Part I—Procedures for RORγ-Ligand Binding Domain TR-FRET Assay Protocol I
Recombinant,HIS-tagged RORγ-LBD was expressed in SF9 cells using a baculovirus expression system. Cells were lysed and the lysate was used as a source for RORγ-LBD for the assay. A 1:80 dilution of RORγ-LBD lysate in assay buffer (25 mM HEPES pH 7.0, 100 mM NaCl, 0.01% Tween, 0.1% BSA) was prepared and 5 μL was added to each well (RORγ-LBD final concentration ˜3 nM). Control wells received lysate from SF9 cells not expressing RORγ-LBD.
Compounds to be tested were diluted to 100× final test concentration in DMSO and further diluted to 4× final test concentration using assay buffer to provide the test compound mixture. An aliquot (5 μL) of the test compound mixture was added to each well.
A 4× stock of biotinylated-LXXLL peptide from SRC1-2 (Biotin-[…]) was prepared in assay buffer and a 5 μL aliquot added to each well (450 nM final concentration). A 4× solution of europium tagged anti-HIS antibody (2 nM final concentration) and APC conjugated streptavidin (60 nM final concentration) were prepared and a 5 μL aliquot added to each well.
The final assay mixture was incubated for 4 hours to overnight, and the fluorescence signal was measured on an Envision plate reader: (Excitation filter=340 nm; APC emission=665 nm; Europium emission=615 nm; dichroic mirror=D400/D630; delay time=100 μs, integration time=200 μs).
EC50 values for test compounds were calculated from the quotient of the fluorescence signal at 665 nm divided by the fluorescence signal at 615 nm using GraphPad Prism software

T1 sequence (P51449 269-508): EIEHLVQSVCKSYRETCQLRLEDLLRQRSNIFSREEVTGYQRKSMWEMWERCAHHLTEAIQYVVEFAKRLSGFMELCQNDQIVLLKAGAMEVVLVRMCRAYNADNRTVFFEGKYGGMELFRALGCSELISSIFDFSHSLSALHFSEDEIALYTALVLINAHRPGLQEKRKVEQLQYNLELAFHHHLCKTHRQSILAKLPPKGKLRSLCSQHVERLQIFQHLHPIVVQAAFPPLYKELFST

`Cc1cccc(S(=O)(=O)N2CCCc3ncc(NC(=O)c4c(F)cccc4Cl)cc32)c1` [Compound 37, 2-chloro-6-fluoro-N-(5-(m-tolylsulfonyl)-5,6,7,8-tetrahydro-1,5-naphthyridin-3-yl)benzamide]: the EC50 in assay [1] is 16 nM; in assay [2], 52 nM.

Consider `Cc1nn(C(F)F)cc1S(=O)(=O)n1ncc2cnc(NC(=O)c3c(F)cccc3Cl)cc21` [Compound 11], for which the EC50 in assay [1] was determined as 324 nM; in assay [2], 447 nM.

Take `C[C@H]1CN(S(=O)(=O)c2ccc(F)cc2)c2cc(NC(=O)c3c(F)cccc3Cl)cnc2O1` [Compound 26]: the EC50 in assay [1] came to 63 nM; in assay [2], 829 nM.

For the compound `O=C(Nc1cc2c(cn1)cnn2S(=O)(=O)c1cccc(C(F)(F)F)c1)c1c(F)cccc1Cl` [Compound 10], the EC50 in assay [1] stood at 4330 nM; in assay [2], 3620 nM.

For the compound `Cc1cccc(S(=O)(=O)N2C[C@H](C)Oc3ncc(NC(=O)c4c(F)cccc4C(F)(F)F)cc32)c1` [Compound 24], the EC50 in assay [1] was 6 nM; in assay [2], 132 nM.

For the compound `O=C(Nc1cnc2c(c1)N(S(=O)(=O)c1ccc(F)cc1)CCC2)c1c(F)cccc1F` [Compound 36, 2,6-difluoro-N-(5-(4-fluorobenzenesulfonyl)-5,6,7,8-tetrahydro-[1,5]naphthyridin-3-yl)benzamide], the EC50 in assay [1] is 202 nM; in assay [2] it was 700 nM.

Regarding `CC(=O)NC[C@H]1CN(S(=O)(=O)c2cccc(C)c2)c2cc(NC(=O)c3c(F)cccc3Cl)cnc2O1` [Compound 16, (S)-N-(3-(acetamidomethyl)-1-(m-tolylsulfonyl)-2,3-dihydro-1H-pyrido[2,3-b][1,4]oxazin-7-yl)-2-chloro-6-fluorobenzamide], the EC50 in assay [1] was found to be 123 nM; in assay [2], 336 nM.

For the compound `Cc1cccc(S(=O)(=O)N2CCCc3ncc(NC(=O)[C@@H](C)c4ccccc4)cc32)c1` [Compound 38, (S)-2-phenyl-N-(5-(m-tolylsulfonyl)-5,6,7,8-tetrahydro-1,5-naphthyridin-3-yl)propanamide], the figures for the EC50 in assay [1] and in assay [2] were 61 nM and 414 nM, respectively.

In the case of `C[C@H]1CN(S(=O)(=O)c2cccc(C#N)c2)c2cc(NC(=O)c3c(F)cccc3Cl)cnc2O1` [Compound 25], the results for the EC50 in assay [1] and in assay [2] were 70 nM and 1030 nM, respectively.

`O=C(Nc1cnc2cnn(S(=O)(=O)c3cccc(C(F)(F)F)c3)c2c1)c1c(F)cccc1Cl` [Compound 1, 2-chloro-6-fluoro-N-[1-(3-trifluoromethylbenzenesulfonyl)-1H-pyrazolo[4,3-b]pyridin-6-yl]benzamide]: the EC50 in assay [1] is 25 nM; in assay [2], 1880 nM.

Turning to `CC(=O)NC[C@H]1CN(S(=O)(=O)c2cccc(C)c2)c2cc(NC(=O)[C@@H](C)c3ccccc3)cnc2O1` [Compound 17, (S)-N-((S)-3-(Acetamidomethyl)-1-(m-tolylsulfonyl)-2,3-dihydro-1H-pyrido[2,3-b][1,4]oxazin-7-yl)-2-phenylpropanamide], the EC50 in assay [1] worked out at 107 nM; in assay [2], 760 nM.

Turning to `CCc1cccc(S(=O)(=O)N2C[C@H](C)Oc3ncc(NC(=O)c4c(F)cccc4Cl)cc32)c1` [Compound 15, (S)-2-chloro-N-(1-((3-ethylphenyl)sulfonyl)-3-methyl-2,3-dihydro-1H-pyrido-[2,3-b][1,4]oxazin-7-yl)-6-fluorobenzamide], the results for the EC50 in assay [1] and in assay [2] were 10 nM and 31 nM, respectively.

Turning to `C[C@H](C(=O)Nc1cnc2c(c1)N(S(=O)(=O)c1ccc(F)cc1)C[C@H](C)O2)c1ccccc1` [Compound 29], the EC50 in assay [1] was 387 nM; in assay [2] it was 3050 nM.

`C[C@H]1CN(S(=O)(=O)c2cccc(C3CC3)c2)c2cc(NC(=O)c3c(F)cccc3Cl)cnc2O1` [Compound 27]: the figures for the EC50 in assay [1] and in assay [2] were 11 nM and 20 nM, respectively.

As to `CC1COc2ncc(NC(=O)c3c(F)cccc3Cl)cc2N1S(=O)(=O)c1ccc(F)cc1` (stereo not drawn) [Compound 12, 2-chloro-6-fluoro-N-[1-(4-fluorobenzenesulfonyl)-2-methyl-2,3-dihydro-1H-pyrido[2,3-b][1,4]oxazin-7-yl]benzamide], the EC50 was determined as 66 nM in assay [1] and 250 nM in assay [2].
